Measurements published in patent publication US20260355199A1, “COMPOSITIONS AND METHODS FOR TREATING OR PREVENTING NONALCOHOLIC STEATOHEPATITIS (NASH), ANOREXIA, DEPRESSION, ENDOMETRIOSIS, AND OTHER DISEASES OR DISORDERS” (priority 2022, published 2026).
“Also recorded” adds a separate entry of the source.

What was measured:
let-7a = let-7a level in mouse peritoneal macrophages; format: cell-based; settings: 10 μM, 48 h
Method: For cultured mouse peritoneal macrophages, cells were primed with 30 ng/ml of TGF-β1 (R&D Systems, 7666-MB0-005) for 48 h (to increase TET3 expression) before Bobcat339 treatment. Bobcat339 (or DMSO) was added at a final concentration of 10 μM, followed by RNA and protein extraction at time points indicated in the figure legends.
For let-7a qPCR, 10 ng of total RNA was reverse transcribed to cDNA in a reaction volume of 10 μl using miRCURY LNA RT Kit (QIAGEN, 339340). Quantitative real-time PCR reactions were carried out using miRCURY LNA SYBR Green PCR Kit (QIAGEN, 339346) and a let-7a-specific primer (Has-Let-7a-5p miRCURY LNA miRNA PCR Assay, QIAGEN, 339306/YP00205727) in a Bio-Rad iCycler. Gene expression levels were normalized against U6 (U6 snRNA v2 miRURY LNA miRNA PCR Assay, QIAGEN, 339306/YPO2119464, QIAGEN).

TET3 = TET3 protein stability (cycloheximide) in MDMs; format: cell-based, human; settings: 10 μM, with cycloheximide
Method: For TET protein stability assay of MDMs, cells in 24-well plates were incubated with vehicle or Bobcat339 at a final concentration of 10 μM for 3 h, followed by addition of cycloheximide (CHX, Cell Signaling, 2112) at a final concentration of 50 μg/mL. Proteins were harvested at 0, 2, 4, and 6 hours after addition of CHX.

AGRP, NPY, and VGAT = assay: AGRP, NPY and VGAT expression in the ARC of mice; format: in vivo, mouse; settings: Bobcat339 vs. vehicle mice
Method: The GFP construct used for tagging AgRP neurons labels almost exclusively the perikaryon. The presence of AGRP, NPY, and VGAT outside the perikarya reflected the fact that these fast-firing neurons transport their neuromodulatory products rabidly to the neuronal processes.
Bobcat339 powder (Sigma-Aldrich, SML2611) was freshly dissolved in DMSO (vehicle) at a concentration of 50 mg/mL and filtered through a 0.22 micron. It was further diluted with 1×PBS to a final concentration of 0.5 mg/mL before injections. Mice were injected intraperitoneally with Bobcat339 at 1 mg/kg, 2.5 mg/kg, or 4 mg/kg.
Total RNAs were extracted from neuronal cells or homogenized hypothalamic arcuate nucleus tissue samples using PureLink RNA Mini Kit (Ambion, 12183025). cDNA was synthesized using PrimeScript RT Reagent Kit in a 20 μl reaction containing 0.5-1 μg of total RNA. Real-time quantitative PCR was performed in a 15 μl reaction containing 0.5-1 μl of cDNA using SsoAdvanced Universal SYBR Green Supermix in a Bio-Rad iCycler. Specificity was verified by melting curve analysis. The Ct values of each sample were used in the post-PCR data analysis. […]
The immunofluorescence for brain slices was conducted using previous methods (18). […] The sections were coverslipped and scoped using a Keyence BZ-X700 fluorescence microscope. The fluorescence signals from GFP in AgRP neurons were detected without immunostaining.

For `Nc1nc(=O)n(-c2cccc(-c3ccccc3)c2)cc1Cl` [Bobcat339, 4-Amino-1-[1,1′-biphenyl]-3-yl-5-chloro-2(1H)-pyrimidinone], the let-7a level (let-7a) was “higher levels of let-7a”, the TET3 protein stability (TET3) was “reduced the steady-state level of TET3 much more dramatically than that of TET2” and the “AGRP, NPY, and VGAT protein in the ARC” value (AGRP, NPY, and VGAT) was “increased productions of AGRP, NPY, and VGAT; also recorded: a marked increase in their expressions”. The “Agrp, Npy and Slc32a1 mRNA in the ARC” value (AGRP, NPY, and VGAT) was “Increases in the mRNA levels of Agrp, Npy and Slc32a1; also recorded: increased expressions of Agrp, Npy, and Slc32a1”.
